Patent publication US20150182525A1, “4-Amino-5-Fluoro-3-[6-(4-Methylpiperazin-1-YL)-1H-Benzimidazol-2-YL]-1H-Quinolin-2-one for use in the Treatment of Adenoid Cystic Carcinoma” (priority 2011, published 2015)
“Also recorded” adds a separate entry of the source.

Legend:
[1] = system: ACCx6 xenograft tumor line; assay: ACCx6 adenoid cystic carcinoma xenograft efficacy study in nude mice; type: in vivo; settings: 50 mg/kg p.o. qd x28; D28; P<0.001 as compared to 5/10 mg/kg docetaxel monotherapy
Procedure: The tumors are maintained by engraftment in nude mice. A 1 mm^3 fragment is implanted subcutaneously in the right flank of each test animal The tumors are measured with calipers twice weekly, and daily as the mean volume approached 100-150 mm^3 Seven days after tumor cell implantation, on D1 (day 1) of the study, the animals are sorted into groups of ten mice, with individual tumor sizes of 100-1250 mm^3 Tumor size, in mm^3, is calculated from
where “w” is the width and “1” is the length, in mm, of the tumor. Tumor weight is estimated with the assumption that 1 mg is equivalent to 1 mm^3 of tumor volume. For the efficacy study dovitinib and its vehicle are each administered orally (p.o.), once daily for twenty eight consecutive days (qd x28). […] The dosing volume, 10 mL/kg (0.2 mL20 g mouse), is scaled to the weight of each animal as determined on the day of dosing, except on weekends when the previous BW was carried forward.
The study begins on Day 1 (D1). Efficacy is determined from tumor volume changes up to D28 (day 28). Efficacy is determined on D28.
For the purpose of statistical and graphical analyses, ΔTV, the difference in tumor volume between D1 (the start of dosing) and the endpoint day, was determined for each animal For each treatment group, the response on the endpoint day was calculated by the following relation: […]

[2] = system: ACCx5M1 xenograft tumor line; assay: ACCx5M1 adenoid cystic carcinoma xenograft tumor growth delay study in nude mice; type: in vivo
Text: The data set is comprised of the first observation that exceeded the study endpoint volume and the three consecutive observations that immediately preceded the attainment of the endpoint volume. The calculated TTE is usually less than the day on which an animal is euthanized for tumor size.

[3] = system: Stage IV adenoid cystic carcinoma; assay: Dovitinib clinical trial, adenoid cystic carcinoma patient, radiologic imaging of target lesions; type: in vivo, human
Procedure: A patient with Stage IV adenoid cystic carcinoma was enrolled in a dovitinib clinical trial.
The patient was originally diagnosed 20 years ago with Stage II well differentiated ACC on the right cheek mucosa. Patient was previously treated using tumor resection of right cheek mucosa and right upper jaw and treated with radiation therapy, followed by chemotherapy with 5 FU (250 mg/m^2), ciplatin (40 mg/m^2), doxorubicin (20 or 27 mg/m^2) and cyclophosphamide (400 mg/m^2).
Recurrence of ACC occurred […], and patient was again treated using surgery of right cheek and submandibular Lymph nodes. Patient was subsequently treated with radiation therapy and followed by chemotherapy (TS-1, 120 mg/day).
Patient was enrolled into the dovitinib clinical trial and was treated with dovitinb 500 mg 5 days on 2 days off.

primary ACC xenografts = assay: Tumor growth inhibition in primary ACC xenograft models; type: in vivo, immunodeficient mice; settings: FIGS. 6 and 7
Procedure: Once confirmed, established ACC xenograft models were developed until growth characteristic stabilized at which point viable stocks were collected and banked. According to one embodiment, the efficacy of dovitinib was evaluated in inhibiting tumor growth in certain ACC xenografts.

[4] = 500 mg 5 days on 2 days off, after 1 cycle of treatment (4 weeks), one patient

Compound: CN1CCN(c2ccc3nc(-c4c(N)c5c(F)cccc5[nH]c4=O)[nH]c3c2)CC1 [dovitinib, 4-amino-5-fluoro-3-[6-(4-methylpiperazin-1-yl)-1H-benzimidazol-2-yl]-1H-quinolin-2-one]
- median growth inhibition (tumor volume) [1]: significant median growth inhibition
- survival extension ([2]; 50 mg/kg monotherapy, Logrank test, P<0.05): significant
- % TGD (tumor growth delay) ([2]; 50 mg/kg p.o. qd x64 monotherapy, study endpoint D64 or endpoint tumor volume): 49%
- reduction of total diameter of target lesions [3, 4]: 26%
- reduction of tumor diameter on the right facial target lesion [3, 4]: 70%
- reducing ACC tumor growth in a human clinical trial ([3]; after 1 cycle of treatment): surprisingly effective in reducing ACC tumor growth
- inhibiting tumor growth in primary ACC xenografts (primary ACC xenografts): effective for inhibiting tumor growth; also recorded: surprisingly effective in inhibiting tumor
